In assay [1] the target is T1, human FLT3 protein (FLT3 (WT)) (Homo sapiens, UniProt P36888).
T1 construct: human FLT3 protein (intracellular region, 564 to 993 aa); GST; purchased Carna Biosciences; host or cells: baculovirus expression system
T1 sequence (P36888 564-993): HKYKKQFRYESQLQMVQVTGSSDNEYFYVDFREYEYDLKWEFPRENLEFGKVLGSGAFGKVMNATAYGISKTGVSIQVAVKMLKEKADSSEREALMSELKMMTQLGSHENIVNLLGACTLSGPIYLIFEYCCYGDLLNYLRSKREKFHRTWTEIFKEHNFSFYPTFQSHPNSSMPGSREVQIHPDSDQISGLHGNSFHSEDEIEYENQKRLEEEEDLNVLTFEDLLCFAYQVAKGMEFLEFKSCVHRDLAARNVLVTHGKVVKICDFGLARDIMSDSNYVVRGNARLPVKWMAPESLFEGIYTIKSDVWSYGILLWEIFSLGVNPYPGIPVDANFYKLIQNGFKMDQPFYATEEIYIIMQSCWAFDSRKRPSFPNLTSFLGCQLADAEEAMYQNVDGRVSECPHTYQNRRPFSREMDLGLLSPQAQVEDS
Nature of the assay: FLT3 inhibition test (FLT3 enzyme inhibition, time-resolved fluorescence of substrate peptide phosphorylation). In kind it is biochemical. To be noted: read-out: FLT3 (WT) enzyme inhibition activity. A digest of the protocol: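 Substrate peptide phosphorylation detected by time-resolved fluorescence after a 30 min kinase reaction at 25° C with 50 μM ATP (final). Beforehand, compound and FLT3 (WT, 1.2 μg) stood 15 min at 25° C in HEPES buffer pH 7.5 containing MgCl2, NaCl, BSA and DTT.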

Assay [2] concerns MV4-11 cells. The experiment in a line: Leukemia cell proliferation inhibition test (ATPlite), MV4-11. Type of assay: cell-based. To be noted: read-out: MV4-11 cell proliferation inhibition effect. Summed up:
(§1)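 Molm-13 or MV4-11 cells at 10,000 cells/well in RPMI with 10% FBS and pen/strep were exposed to serially diluted compound for 72 h at 37 °C, 5% CO2. Total cellular ATP was read by luciferase luminescence. GI50 was taken relative to 0.1% DMSO control, from duplicates by sigmoid non-linear regression.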
On the technique in general: Cellular ATP, detected with luciferase, serves as a proxy for viable cell number.

In assay [3] the test system is Molm-13 cells. Nature of the assay: Leukemia cell proliferation inhibition test (ATPlite), Molm-13. Type of assay: cell-based. To be noted: read-out: MOLM13 cell proliferation inhibition effect. Summed up: as §1
Where [4] appears, read: GST-fused human FLT3 (564 to 993 aa), ATP 50 μM.
[5] abbreviates: Homo sapiens, MV4-11, 72 h, MV4-11, 72 hours culture, ATPlite, GI50 per method.
Where [6] appears, read: Homo sapiens, MOLM-13, 72 h, Molm-13, 72 hours culture, ATPlite, GI50 per method.
Setting [7] is: Homo sapiens, MV4-11, MV4-11 cell.
Where [8] appears, read: Homo sapiens, MOLM-13, MOLM13 cell.

Where two headings read alike, the source gives them in different places.

Turning to `C=CC(=O)N(C)CC(=O)NCCCNC(=O)c1cnc(Nc2ccc3cnncc3c2)nc1NCCC` [Compound 6-10A, N-(3-(2-(N-methylacrylylamido)actamido)propyl)-2-((phthalazin-6-yl)amino)-4-(propylamino)pyrimidine-5-carboxamide], the results for the IC50 in assay [1] (setting [4]), in assay [2] (setting [5]) and in assay [3] (setting [6]) were less than 10 nM, 10 to 100 nM and 100 to 1000 nM, respectively.
As to `C[C@@H](C(=O)N[C@H]1CCC[C@@H](C#Cc2cnc(Nc3ccc(C#N)cc3)nc2N2CCOCC2)C1)N(C)C(=O)/C=C/CN(C)C` [Compound 14-5], the IC50 in assay [1] (setting [4]), in assay [2] (setting [5]) and in assay [3] (setting [6]) was less than 10 nM each time.
With `CCCNc1nc(NCCc2ccncc2)ncc1C(=O)Nc1ccc(OC)c(NC(=O)CNC(=O)/C=C/CN(C)C)c1` [Compound 1-9], the IC50 in assay [1] (setting [4]) is less than 10 nM; in assay [2] (setting [5]) it was less than 10 nM; in assay [3] (setting [6]), 10 to 100 nM.
Turning to `CCCNc1nc(NC)ncc1C#CCCCNC(=O)[C@H](C)N(C)C(=O)/C=C/CN(C)C` [Compound 11-1, (S,E)-4-(dimethylamino)-N-methyl-N-(1-((5-(2-(methylamino)-4-(propylamino)pyrimidin-5-yl)-4-pentyn-1-yl)amino)-1-oxopropan-2-yl)-2-butenamide], the IC50 in assay [1] (setting [4]), in assay [2] (setting [5]) and in assay [3] (setting [6]) was 10 to 100 nM in each case.
For the compound `CCCNc1nc(Nc2ccc(C(N)=O)cc2)ncc1C#Cc1cccc(NCCNC(=O)/C=C/CN(C)C)c1` [Compound 8-5], the figures for the IC50 in assay [1] (setting [4]), in assay [2] (setting [5]) and in assay [3] (setting [6]) were less than 10 nM, 10 to 100 nM and 10 to 100 nM, respectively.
Turning to `CCCNc1nc(Nc2ccc3[nH]ncc3c2)ncc1C#CCCCNC(=O)[C@@H]1CCCN1C(=O)/C=C/CN(C)C` [Compound 22-62], the IC50 in assay [1] (FLT3 (WT)), in assay [2] (setting [7]) and in assay [3] (setting [8]) was less than 10 nM in each case.
For the compound `CCCNc1nc(Nc2ccc(C(N)=O)cc2)ncc1C(=O)NCCCNC(=O)CN(C)C(=O)/C=C/CN(C)C` [Compound 5-5], the IC50 in assay [1] (setting [4]) is less than 10 nM; in assay [2] (setting [5]), 10 to 100 nM; in assay [3] (setting [6]) it was 10 to 100 nM.
For `CCCNc1nc(Nc2cc(C)no2)ncc1C#CCCCNC(=O)[C@@H]1CCCN1C(=O)/C=C/CN(C)C` [Compound 7-79], the IC50 in assay [1] (setting [4]), in assay [2] (setting [5]) and in assay [3] (setting [6]) was less than 10 nM in each case.
Regarding `C[C@@H](C(=O)NCCCC#Cc1cnc(Nc2ccc(C#N)cc2)nc1NC1CCC1)N(C)C(=O)/C=C/CN(C)C` [Compound 10-47], the IC50 in assay [1] (setting [4]), in assay [2] (setting [5]) and in assay [3] (setting [6]) was less than 10 nM each time.
As for `C=CC(=O)N(C)CC(=O)Nc1cccc(NC(=O)c2cnc(NCCc3ccncc3)nc2NCCC)c1` [Compound 1-3], the IC50 in assay [1] (setting [4]), in assay [2] (setting [5]) and in assay [3] (setting [6]) was less than 10 nM throughout.
Turning to `C[C@@H](C(=O)NCCCC#Cc1cnc(Nc2ccc(F)nc2)nc1NCCCF)N(C)C(=O)/C=C/CN(C)C` [Compound 10-34], the IC50 in assay [1] (setting [4]), in assay [2] (setting [5]) and in assay [3] (setting [6]) was less than 10 nM throughout.
`CCCNc1nc(Nc2cccc(F)c2)ncc1C#CCCCNC(=O)[C@H](C)N(C)C(=O)/C=C/CN(C)C` [Compound 7-1, (S,E)-4-(dimethylamino)-N-(1-((5-(2-((3-fluorophenyl)amino)-4-(propylamino)pyrimidin-5-yl)-4-pentyn-1-yl)amino)-1-oxopropan-2-yl)-N-methyl-2-butenamide]: the IC50 in assay [1] (setting [4]), in assay [2] (setting [5]) and in assay [3] (setting [6]) was less than 10 nM in each case.
Turning to `CCCNc1nc(Nc2ccc(C#N)cc2)ncc1C#CCCCNC(=O)[C@@H]1C[C@H](OC)CN1C(=O)/C=C/CN(C)C` [Compound 7-61], the IC50 in assay [1] (setting [4]), in assay [2] (setting [5]) and in assay [3] (setting [6]) was less than 10 nM each time.
Take `CCCNc1nc(Nc2cccc(F)c2)ncc1C#Cc1cccc(NC(=O)[C@H](C)N(C)C(=O)/C=C/CN(C)C)c1` [Compound 8-1, (S,E)-4-(dimethylamino)-N-(1-((3-((2-((3-fluorophenyl)amino)-4-(propylamino)pyrimidin-5-yl)ethynyl)phenyl)amino)-1-oxopropan-2-yl)-N-methyl-2-butenamide]: the IC50 in assay [1] (setting [4]), in assay [2] (setting [5]) and in assay [3] (setting [6]) was less than 10 nM each time.
Take `CC(C)CCNc1nc(Nc2ccc(C#N)cc2)ncc1C#CCCCNC(=O)[C@H](C)N(C)C(=O)/C=C/CN(C)C` [Compound 10-13]: the IC50 in assay [1] (setting [4]), in assay [2] (setting [5]) and in assay [3] (setting [6]) was less than 10 nM throughout.
Take `CNc1ncc(C#C[C@H]2C[C@@H](NC(=O)[C@H](C)N(C)C(=O)/C=C/CN(C)C)C2)c(Nc2ccc(OC)cc2)n1` [Compound 13-21]: the IC50 in assay [1] (setting [4]), in assay [2] (setting [5]) and in assay [3] (setting [6]) was less than 10 nM in each case.
As to `CCCNc1nc(Nc2ccc(C(N)=O)cc2)ncc1C(=O)N[C@@H]1CCC[C@H](Nc2ccccc2NC(=O)/C=C/CN(C)C)C1` [Compound 3-28], the IC50 in assay [1] (setting [4]) was less than 10 nM; in assay [2] (MV4-11, 72 hours culture, ATPlite, GI50 per method) it was 100 to 1000 nM; in assay [3] (Molm-13, 72 hours culture, ATPlite, GI50 per method), 100 to 1000 nM.
`CCCNc1nc(Nc2ccc(C#N)cc2)ncc1C#CCCCNC(=O)[C@H](COC)N(C)C(=O)/C=C/CN(C)C` [Compound 7-55]: the IC50 in assay [1] (setting [4]), in assay [2] (setting [5]) and in assay [3] (setting [6]) was less than 10 nM in each case.
With `C=CC(=O)NCC(=O)Nc1cccc(C#Cc2cnc(Nc3ccc(C(N)=O)cc3)nc2NCCC)c1` [Compound 8-3], the figures for the IC50 in assay [1] (setting [4]), in assay [2] (setting [5]) and in assay [3] (setting [6]) were less than 10 nM, less than 10 nM and 10 to 100 nM, respectively.
Consider `CCCNc1nc(Nc2cccc(F)c2)ncc1C#CCCCNC(=O)[C@H](C(C)C)N(C)C(=O)/C=C/CN(C)C` [Compound 7-10], for which the IC50 in assay [1] (setting [4]) is less than 10 nM; in assay [2] (setting [5]) it was 10 to 100 nM; in assay [3] (setting [6]), 10 to 100 nM.
With `CCCNc1nc(Nc2ccc3c(c2)c(F)nn3C)ncc1C#CCCCNC(=O)[C@H](C)N(C)C(=O)/C=C/CN(C)C` [Compound 22-60], the IC50 in assay [1] (FLT3 (WT)), in assay [2] (setting [7]) and in assay [3] (setting [8]) was less than 10 nM in each case.
Regarding `Cc1ccc(Nc2nc(Nc3ccc(C#N)cc3)ncc2C#CCCCNC(=O)[C@H](C)N(C)C(=O)/C=C/CN(C)C)cc1` [Compound 10-23], the IC50 in assay [1] (setting [4]), in assay [2] (setting [5]) and in assay [3] (setting [6]) was less than 10 nM in each case.
Take `CCCNc1nc(NCCc2ccncc2)ncc1C(=O)Nc1cccc(NC(=O)CNC(=O)/C=C/CN2CCN(CCO)CC2)c1` [Compound 2-16]: the IC50 was less than 10 nM in assay [1] (setting [4]), 10 to 100 nM in assay [2] (setting [5]) and 100 to 1000 nM in assay [3] (setting [6]).
For the compound `CNc1nc(Nc2ccc3c(F)nn(C)c3c2)ncc1C#CCCCNC(=O)[C@H](C)N(C)C(=O)/C=C/CN(C)C` [Compound 21-50], the IC50 in assay [1] (FLT3 (WT)), in assay [2] (setting [7]) and in assay [3] (setting [8]) was less than 10 nM each time.
For `CC[C@@H](C(=O)NCCCC#Cc1cnc(Nc2ccc(F)nc2)nc1Nc1cccc(F)c1)N(C)C(=O)/C=C/CN(C)C` [Compound 10-32], the IC50 in assay [1] (setting [4]), in assay [2] (setting [5]) and in assay [3] (setting [6]) was less than 10 nM throughout.
For `CCCNc1nc(NCCc2ccncc2)ncc1C(=O)Nc1cccc(NC(=O)[C@H](C)NC(=O)/C=C/CN(C)C)c1` [Compound 1-2, (S,E)-N-(3-(2-(4-(dimethylamino)-2-butenamido)propanamido)phenyl)-4-(propylamino)-2-((2-(pyridin-4-yl)ethyl)amino)pyrimidine-5-carboxamide], the IC50 was less than 10 nM in assay [1] (setting [4]), less than 10 nM in assay [2] (setting [5]) and 10 to 100 nM in assay [3] (setting [6]).
In the case of `CCCNc1nc(Nc2ccc(C(N)=O)cc2)ncc1C(=O)Nc1ccccc1CNC(=O)[C@H](C)N(C)C(=O)/C=C/CN(C)C` [Compound 3-15], the IC50 in assay [1] (setting [4]) was less than 10 nM; in assay [2] (setting [5]), 100 to 1000 nM; in assay [3] (setting [6]), 100 to 1000 nM.
For the compound `CCOc1nc(Nc2ccc(C#N)cc2)ncc1C#C[C@@H]1CCC[C@H](NC(=O)[C@H](C)N(C)C(=O)/C=C/CN(C)C)C1` [Compound 21-20], the IC50 in assay [1] (setting [4]), in assay [2] (setting [5]) and in assay [3] (setting [6]) was less than 10 nM in each case.
On to `CCCNc1nc(Nc2ccc(C#N)cc2)ncc1C#CCCCNC(=O)CN(Cc1ccccc1)C(=O)/C=C/CN(C)C` [Compound 7-43], for which the IC50 in assay [1] (setting [4]), in assay [2] (setting [5]) and in assay [3] (setting [6]) was less than 10 nM each time.

(Values after US9145415B2, “Nitrogen-containing heterocyclic compound or salt thereof” (FUJIFILM Corporation, priority 2012, dated 2015).)
